Calls of active or inactive are those of the source. The rule behind the calls is not given here.
Tested on: rodent carcinogenicity bioassays, tumor incidence
Test: CCRIS carcinogenicity studies
In short: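 Archive of carcinogenicity, mutagenicity, tumor promotion and tumor inhibition results drawn from journals, NCI reports and other sources, expert-reviewed; covers 1985-2011 and is no longer updated.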

**Q.** Which results are given for `Cc1cc(-c2ccccc2C)ccc1N=O`?
**A.** carcinogen call (Species: HAMSTER, Strain/Sex: SYRIAN/FEMALE, Route: SUBCUTANEOUS, Dose: 0.15 MMOL/KG IN PEANUT OIL 1/WK FOR 37 WK (TOTAL DOSE 5.6 MMOL/KG), Tumor Site: Type of Lesion: INJECTION SITE: RHABDOMYOSARCOMA, SPINDLE CELL CARCINOMA, PLEIOMORPHIC SARCOMA): active; positive; carcinogen call (Species: HAMSTER, Strain/Sex: SYRIAN/MALE, Route: SUBCUTANEOUS, Dose: 0.15 MMOL/KG IN PEANUT OIL 1/WK FOR 37 WK (TOTAL DOSE 5.6 MMOL/KG), Tumor Site: Type of Lesion: INJECTION SITE: RHABDOMYOSARCOMA, PLEIOMORPHIC SARCOMA): active; positive

**Q.** How did the carcinogen call (Species: MOUSE, Strain/Sex: B6C3F1/FEMALE, Route: ORAL, Dose: 0, 2200, 4400 PPM IN DIET, Dose: 0, 2200, 4400 PPM IN DIET, Tumor Site: Type of Lesion: LIVER: HEPATOCELLULAR ADENOMA OR CARCINOMA) turn out when `Nc1ccc(N)c([N+](=O)[O-])c1` was run?
**A.** active; positive

**Q.** And the carcinogen call (Species: MOUSE, Strain/Sex: B6C3F1/MALE, Route: ORAL, Dose: 0, 2200, 4400 PPM IN DIET, Dose: 0, 2200, 4400 PPM IN DIET)?
**A.** inactive; negative

**Q.** And the carcinogen call (Species: RAT, Strain/Sex: F344/FEMALE, Route: ORAL, Dose: 0, 1100, 2200 PPM IN DIET, Dose: 0, 1100, 2200 PPM IN DIET)?
**A.** inactive; negative

**Q.** What about the carcinogen call (Species: RAT, Strain/Sex: F344/MALE, Route: ORAL, Dose: 0, 550, 1100 PPM IN DIET, Dose: 0, 550, 1100 PPM IN DIET) of the same molecule?
**A.** inactive; negative

**Q.** `CO[C@H]1/C=C/O[C@@]2(C)Oc3c(C)c(O)c4c(O)c(c(C=NN5CCN(C)CC5)c(O)c4c3C2=O)NC(=O)/C(C)=C\C=C\[C@H](C)[C@H](O)[C@@H](C)[C@@H](O)[C@@H](C)[C@H](OC(C)=O)[C@@H]1C` was tested. Which carcinogen call (Species: MOUSE, Strain/Sex: C3F/FEMALE, Route: ORAL, Dose: 0.01, 0.03 0.06% IN DRINKING WATER WITH 0.05% SODIUM ASCORBATE FOR 60 WK, Tumor Site: Type of Lesion: LIVER: BENIGN TUMOR OR MALIGNANT TUMOR) did it give?
**A.** active; positive

**Q.** `C=C1C[C@@]23CC[C@H]4[C@@](C)(CCC[C@@]4(C)C(=O)O[C@@H]4O[C@H](CO)[C@@H](O)[C@H](O)[C@H]4O)[C@@H]2CC[C@]1(O[C@@H]1O[C@H](CO)[C@@H](O)[C@H](O)[C@H]1O[C@@H]1O[C@H](CO)[C@@H](O)[C@H](O)[C@H]1O)C3` was tested. Which carcinogen call (Species: RAT, Strain/Sex: F344/FEMALE, Route: ORAL, Dose: 0, 2.5, 5% IN DIET FOR 104 WK (STUDY DURATION: 108 WK), Dose: 0, 2.5, 5% IN DIET FOR 104 WK (STUDY DURATION: 108 WK)) did it give?
**A.** inactive; negative

**Q.** What about the carcinogen call (Species: RAT, Strain/Sex: F344/MALE, Route: ORAL, Dose: 0, 2.5, 5% IN DIET FOR 104 WK (STUDY DURATION: 108 WK), Dose: 0, 2.5, 5% IN DIET FOR 104 WK (STUDY DURATION: 108 WK)) of the same molecule?
**A.** inactive; negative

**Q.** And the carcinogen call (Species: RAT, Strain/Sex: WISTAR/FEMALE, Route: ORAL, Dose: 0, 0.2, 0.6%, 1.2% IN DIET FOR 24 MO (STUDY DURATION: 24 MO), Dose: 0, 0.2, 0.6%, 1.2% IN DIET FOR 24 MO (STUDY DURATION: 24 MO))?
**A.** inactive; negative

**Q.** And the carcinogen call (Species: RAT, Strain/Sex: WISTAR/MALE, Route: ORAL, Dose: 0, 0.2, 0.6, 1.2% IN DIET FOR 24 MO (STUDY DURATION: 24 MO), Dose: 0, 0.2, 0.6, 1.2% IN DIET FOR 24 MO (STUDY DURATION: 24 MO))?
**A.** inactive; negative

**Q.** Which results are given for `O=C(O)C(Cl)Cl`?
**A.** carcinogen call (Species: MOUSE, Strain/Sex: B6C3F1/FEMALE, Route: ORAL, Dose: 0, 2, 6.67, 20 MMOL/L IN DRINKING WATER FOR 360 D (STUDY DURATION: 360 D), Dose: 0, 2, 6.67, 20 MMOL/L IN DRINKING WATER FOR 360 D (STUDY DURATION: 360 D), Tumor Site: Type of Lesion: LIVER: ADENOMA): active; positive; carcinogen call (Species: MOUSE, Strain/Sex: B6C3F1/FEMALE, Route: ORAL, Dose: 0, 2, 6.67, 20 MMOL/L IN DRINKING WATER FOR 576 D (STUDY DURATION: 576 D), Dose: 0, 2, 6.67, 20 MMOL/L IN DRINKING WATER FOR 576 D (STUDY DURATION: 576 D), Tumor Site: Type of Lesion: LIVER: ADENOMA, CARCINOMA): active; positive; carcinogen call (Species: MOUSE, Strain/Sex: B6C3F1/FEMALE, Route: ORAL, Dose: 0, 2 G/L (TOTAL DOSE) IN DRINKING WATER FOR 52 WK (STUDY DURATION: 52 WK)): inactive; negative; carcinogen call (Species: MOUSE, Strain/Sex: B6C3F1/FEMALE, Route: ORAL, Dose: 0, 20 MMOL/L IN DRINKING WATER FOR 24 D FOLLOWED BY 48 D WITHOUT EXPOSURE THIS 72-DAY CYCLE REPEATED FOR THE DURATION OF): inactive; negative; carcinogen call (Species: MOUSE, Strain/Sex: B6C3F1/MALE, Route: ORAL, Dose: 0, 0.5, 1.0, 2, 3.5 G/L IN DRINKING WATER FOR 26 WK (STUDY DURATION: 26 WK), Dose: 0, 0.5, 1.0, 2, 3.5 G/L IN DRINKING WATER FOR 26 WK (STUDY DURATION: 26 WK)): inactive; negative; carcinogen call (Species: MOUSE, Strain/Sex: B6C3F1/MALE, Route: ORAL, Dose: 0, 0.5, 1.0, 2, 3.5 G/L IN DRINKING WATER FOR 52 WK (STUDY DURATION: 52 WK), Dose: 0, 0.5, 1.0, 2, 3.5 G/L IN DRINKING WATER FOR 52 WK (STUDY DURATION: 52 WK), Tumor Site: Type of Lesion: LIVER: HEPATOCELLULAR ADENOMA OR CARCINOMA): active; positive; carcinogen call (Species: MOUSE, Strain/Sex: B6C3F1/MALE, Route: ORAL, Dose: 0, 0.5, 1.0, 2, 3.5 G/L IN DRINKING WATER FOR 78 WK (STUDY DURATION: 78 WK), Dose: 0, 0.5, 1.0, 2, 3.5 G/L IN DRINKING WATER FOR 78 WK (STUDY DURATION: 78 WK), Tumor Site: Type of Lesion: LIVER: HEPATOCELLULAR ADENOMA OR CARCINOMA): active; positive; carcinogen call (Species: MOUSE, Strain/Sex: B6C3F1/MALE, Route: ORAL, Dose: 0, 0.5, 1.0, 2, 3.5 G/L IN DRINKING WATER FOR 100 WK (STUDY DURATION: 100 WK), Dose: 0, 0.5, 1.0, 2, 3.5 G/L IN DRINKING WATER FOR 100 WK (STUDY DURATION: 100 WK), Tumor Site: Type of Lesion: LIVER: HEPATOCELLULAR ADENOMA OR CARCINOMA): active; positive; carcinogen call (Species: MOUSE, Strain/Sex: B6C3F1/MALE, Route: ORAL, Dose: 0, 0.5 G/L DISTILLED DRINKING WATER FOR STUDY DURATION (93 MG/KG/D) (STUDY DURATION: 104 WK), Tumor Site: Type of Lesion: LIVER: HEPATOCELLULAR CARCINOMA, HEPATOCELLULAR ADENOMA): active; positive; carcinogen call (Species: MOUSE, Strain/Sex: B6C3F1/MALE, Route: ORAL, Dose: 0, 1, 2 G/L IN DRINKING WATER FOR 52 WK (STUDY DURATION: 52 WK), Dose: 0, 1, 2 G/L IN DRINKING WATER FOR 52 WK (STUDY DURATION: 52 WK), Tumor Site: Type of Lesion: LIVER: ADENOMA OR HEPATOCELLULAR CARCINOMA): active; positive; carcinogen call (Species: MOUSE, Strain/Sex: B6C3F1/MALE, Route: ORAL, Dose: 0, 1 G, 2 G/L (TOTAL DOSE) IN DRINKING WATER FOR 52 WK (STUDY DURATION: 52 WK), Dose: 0, 1 G, 2 G/L (TOTAL DOSE) IN DRINKING WATER FOR 52 WK (STUDY DURATION: 52 WK), Tumor Site: Type of Lesion: LIVER: HEPATOCELLULAR CARCINOMA, ADENOMA, HYPERPLASTIC NODULES): active; positive; carcinogen call (Species: MOUSE, Strain/Sex: B6C3F1/MALE, Route: ORAL, Dose: 0, 2 G/L (TOTAL DOSE) IN DRINKING WATER FOR 37 WK (STUDY DURATION: 52 WK), Tumor Site: Type of Lesion: LIVER: ADENOMA, HYPERPLASTIC NODULES): active; positive; carcinogen call (Species: MOUSE, Strain/Sex: B6C3F1/MALE, Route: ORAL, Dose: 0, 5 G/L (0; 39 MILLIMOLAR) IN DRINKING WATER FOR 61 WK (STUDY DURATION: 61 WK), Dose: 0, 5 G/L (0; 39 MILLIMOLAR) IN DRINKING WATER FOR 61 WK (STUDY DURATION: 61 WK), Tumor Site: Type of Lesion: LIVER: CARCINOMA): active; positive; carcinogen call (Species: RAT, Strain/Sex: F344/MALE, Route: ORAL, Dose: 0, 0.05, 0.5 G/L IN DRINKING WATER FOR 100 WK (STUDY DURATION: 100 WK), Dose: 0, 0.05, 0.5 G/L IN DRINKING WATER FOR 100 WK (STUDY DURATION: 100 WK), Tumor Site: Type of Lesion: LIVER: HEPATOCELLULAR ADENOMA OR CARCINOMA): active; positive; carcinogen call (Species: RAT, Strain/Sex: F344/MALE, Route: ORAL, Dose: 0, 2.5 G/L IN DRINKING WATER DOSE LOWERED TO 1 G/L AFTER 18 WK (STUDY DURATION: 103 WK), Tumor Site: Type of Lesion: LIVER: HEPATOCELLULAR ADENOMA OR CARCINOMA): active; positive

— PubChem BioAssay AID1259411 (Chemical Carcinogenesis Research Information System (CCRIS), 2018)
